Measurements published in ChEMBL document CHEMBL4339236, “Colletopeptides A-D, Anti-inflammatory Cyclic Tridepsipeptides from the Plant Endophytic Fungus Colletotrichum sp. S8” (J Nat Prod, 2019).
Activity calls are given as the source filed them. The calls are words filed in the database; no cut-off is given here.

Experiments:
Aeromonas hydrophila = assay: Antibacterial activity against Aeromonas hydrophila measured after 24 hrs by broth microdilution assay; format: functional, organism-based
Escherichia coli = assay: Antibacterial activity against Colon bacillus measured after 24 hrs by broth microdilution assay; format: functional, organism-based
HepG2 [1] = assay: Cytotoxicity against human HepG2 cells measured after 48 hrs by MTS assay; format: cell-based; conditions: hepg2, 48 h
MDA-MB-231 = assay: Cytotoxicity against human MDA-MB-231 cells measured after 48 hrs by MTS assay; format: cell-based; conditions: mda-mb-231, 48 h
HCT-116 = assay: Cytotoxicity against human HCT116 cells measured after 48 hrs by MTS assay; format: cell-based; conditions: hct-116, 48 h
[2] = molecular target: Histone deacetylase (Homo sapiens) (UniProt Q13547+O15379+Q9UBN7+Q92769+Q9UQL6+Q8WUI4+Q9BY41+Q96DB2+P56524+Q9UKV0+Q969S8); assay: Inhibition of HDAC in human HeLa nuclear extracts using Boc-Lys(Ac)-AMC as substrate by fluorescence assay; format: cell-free
HeLa = assay: Cytotoxicity against human HeLa cells measured after 48 hrs by MTS assay; format: cell-based
HepG2 [3] = assay: Lipid lowering activity in human HepG2 cells assessed as reduction in oleic acid-induced lipid accumulation after 24 hrs by oil red O staining based spectrophotometric method; format: functional, cell-based
Staphylococcus aureus = assay: Antibacterial activity against Staphylococcus aureus measured after 24 hrs by broth microdilution assay; format: functional, organism-based
Bacillus subtilis = assay: Antibacterial activity against Bacillus subtilis measured after 24 hrs by broth microdilution assay; format: functional, organism-based
[4] = molecular target: T1, NF-kappa-B inhibitor alpha (Mus musculus) (UniProt Q9Z1E3); assay: Inhibition of IkappaBalpha phosphorylation in LPS-stimulated mouse RAW264.7 cells at 20 to 40 uM preincubated for 12 hrs followed by LPS stimulation and measured after 24 hrs by Western blot analysis; format: cell-based
T1 sequence (whole entry): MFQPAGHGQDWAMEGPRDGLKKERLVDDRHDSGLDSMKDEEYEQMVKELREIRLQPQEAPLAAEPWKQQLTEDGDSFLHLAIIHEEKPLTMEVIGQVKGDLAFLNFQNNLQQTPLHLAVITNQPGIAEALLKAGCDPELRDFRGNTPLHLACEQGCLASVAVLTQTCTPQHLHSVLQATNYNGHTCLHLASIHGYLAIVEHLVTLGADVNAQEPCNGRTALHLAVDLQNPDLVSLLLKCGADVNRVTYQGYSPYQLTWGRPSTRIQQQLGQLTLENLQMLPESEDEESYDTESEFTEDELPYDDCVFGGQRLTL

A549 = assay: Cytotoxicity against human A549 cells measured after 48 hrs by MTS assay; format: cell-based; conditions: a549, 48 h
RAW264.7 [5] = assay: Antiinflammatory activity in mouse RAW264.7 cells assessed as inhibition of LPS-induced nitric oxide production preincubated for 12 hrs followed by LPS-stimulation and measured after 24 hrs by Griess assay; format: functional, cell-based
[6] = molecular target: Transcription factor p65 (Mus musculus) (UniProt Q04207); assay: Inhibition of NFkappaB p65 phosphorylation in LPS-stimulated mouse RAW264.7 cells at 20 to 40 uM preincubated for 12 hrs followed by LPS stimulation and measured after 24 hrs by Western blot analysis; format: cell-based
RAW264.7 [7] = assay: Antiinflammatory activity in mouse RAW264.7 cells assessed as inhibition of LPS-induced IL-6 production preincubated for 12 hrs followed by LPS-stimulation and measured after 24 hrs by ELISA; format: functional, cell-based
RAW264.7 [8] = assay: Antiinflammatory activity in mouse RAW264.7 cells assessed as inhibition of LPS-induced TNFalpha production preincubated for 12 hrs followed by LPS-stimulation and measured after 24 hrs by ELISA; format: functional, cell-based

Chain of Transcription factor p65 (Mus musculus) (Q04207 whole entry): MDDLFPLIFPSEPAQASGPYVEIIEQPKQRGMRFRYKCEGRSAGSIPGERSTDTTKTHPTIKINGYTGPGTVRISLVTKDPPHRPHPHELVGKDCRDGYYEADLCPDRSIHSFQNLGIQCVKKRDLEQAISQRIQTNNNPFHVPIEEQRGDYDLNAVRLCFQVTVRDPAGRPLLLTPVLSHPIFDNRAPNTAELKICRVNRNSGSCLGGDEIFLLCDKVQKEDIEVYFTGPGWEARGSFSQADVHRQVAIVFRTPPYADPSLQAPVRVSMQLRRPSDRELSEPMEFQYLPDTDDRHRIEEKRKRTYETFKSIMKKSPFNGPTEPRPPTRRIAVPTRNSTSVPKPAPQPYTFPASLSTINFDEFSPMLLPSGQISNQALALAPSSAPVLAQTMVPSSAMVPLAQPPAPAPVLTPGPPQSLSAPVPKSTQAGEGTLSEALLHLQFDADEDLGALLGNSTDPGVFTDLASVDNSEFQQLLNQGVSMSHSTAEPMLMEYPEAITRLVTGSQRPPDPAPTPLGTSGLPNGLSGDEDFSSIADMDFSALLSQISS

Structure (SMILES)	inhibition [2]	inhibition [4]	IC50 (RAW264.7 [5]) [µM]	inhibition [6]	Activity (Aeromonas hydrophila)	Activity (Escherichia coli)	Activity (HepG2 [1])	Activity (MDA-MB-231)	Activity (HCT-116)	Activity (HeLa)	Activity (HepG2 [3])	Activity (Staphylococcus aureus)	Activity (Bacillus subtilis)	Activity (A549)	inhibition (RAW264.7 [7])	inhibition (RAW264.7 [8])
CC[C@H](C)[C@H]1C(=O)O[C@H]([C@@H](C)CCCC[C@@H](C)O)C[C@@H](O)[C@@H](C)C(=O)N[C@H](Cc2ccccc2)C(=O)N1C	inactive	Active	8.3	Active	inactive	inactive	Non-Toxic	Non-Toxic	Non-Toxic	Non-Toxic	Active	inactive	inactive	Non-Toxic	Dose-dependent effect	Dose-dependent effect
CC(C)C[C@H]1C(=O)O[C@H]([C@@H](C)CCCC[C@@H](C)O)C[C@@H](O)[C@@H](C)C(=O)N[C@H](Cc2ccccc2)C(=O)N1C	inactive	–	38.7	–	inactive	inactive	Non-Toxic	Non-Toxic	Non-Toxic	Non-Toxic	Active	inactive	inactive	Non-Toxic	–	–
C[C@@H]1C[C@H]2[C@@H]3CCC4=CC(=O)C=C[C@]4(C)[C@@]3(F)[C@@H](O)C[C@]2(C)[C@@]1(O)C(=O)CO [DEXAMETHASONE]	–	–	18.4	–	–	–	–	–	–	–	–	–	–	–	–	–

Further compounds by falling IC50 (RAW264.7 [5]), results first:

inhibition [2]	inhibition [4]	IC50 (RAW264.7 [5]) [µM]	inhibition [6]	Structure (SMILES)	Activity (Aeromonas hydrophila)	Activity (Escherichia coli)	Activity (HepG2 [1])	Activity (MDA-MB-231)	Activity (HCT-116)	Activity (HeLa)	Activity (HepG2 [3])	Activity (Staphylococcus aureus)	Activity (Bacillus subtilis)	Activity (A549)	inhibition (RAW264.7 [7])	inhibition (RAW264.7 [8])
inactive	–	22.2	–	CC[C@H](C)[C@H]1C(=O)O[C@@H](CCCCC[C@@H](C)O)C[C@@H](O)[C@@H](C)C(=O)N[C@H](Cc2ccccc2)C(=O)N1C	inactive	inactive	Non-Toxic	Non-Toxic	Non-Toxic	Non-Toxic	Active	inactive	inactive	Non-Toxic	–	–
inactive	Active	13.5	Active	CC(C)[C@H]1C(=O)O[C@H]([C@@H](C)CCCC[C@@H](C)O)C[C@@H](O)[C@@H](C)C(=O)N[C@H](Cc2ccccc2)C(=O)N1C	inactive	inactive	Non-Toxic	Non-Toxic	Non-Toxic	Non-Toxic	Active	inactive	inactive	Non-Toxic	–	–
